Entries after “also recorded” stand apart in the source; their conditions may differ. Structures can show the parent of a compound that is named as a salt. Where two headings read alike, the source gives them in different places.
Key:
[1] = cited from earlier work
[2] = test system: DSS-induced murine colitis; settings: cited from earlier work
human neutrophils = settings: by preventing up-regulation of CD11b; cited from earlier work
[3] = test system: patients with IBD, CD, and UC; experiment: Retrospective propensity-matched cohort study (TriNetX), secondary analysis: A/P vs HAV, HCQ, MES; assay type: in vivo, human; settings: propensity score matched, within 1 year of exposure
Protocol: Using a multi-institutional database, after 1:1 propensity score matching, we identified adult all-cause IBD patients between 2000 and 2019. […] Outcomes were steroid use, hospitalization, or advanced therapy use within 1 year of exposure. The experiments were repeated in Crohn's disease (CD) and ulcerative colitis (UC) patient cohorts. […]
A retrospective cohort study was performed using a de-identified multi-institutional database with 80 contributing healthcare organizations (HCO), including over 113 million patients (TriNetX Research Network, Cambridge, Massachusetts, date of data access Dec. 7, 2023; IRB exempt). TriNetX regularly aggregates clinical data directly from participating HCOs, primarily in the United States, including extensive data quality and accuracy assessment. Institutional information relating to participating HCOs is also de-identified, however, a typical HCO includes a large academic healthcare center with prevalent capabilities for inpatient services, outpatient services, and specialty care services.
A second analysis was performed to identify all adult patients (aged≥18 years) diagnosed with IBD, including Crohn's disease (CD, ICD-10: K50) and/or ulcerative colitis (UC, ICD-10: K51), between Jan. 1, 2000, and Dec. 31, 2019. […] The index event for all groups was the time of the patient's first prescription.
If there were multiple prescriptions, the index event was defined as the date of the first prescription. Information on duration and dosage was not available.
The outcomes of steroid use (yes/no), hospitalization (yes/no), and advanced therapy use (yes/no) were chosen as they are generally regarded as surrogate markers for IBD activity. Steroid use was defined as a prescription for prednisone, methylprednisolone, or budesonide. All-cause hospitalization was used because TriNetX could not specify a cause for hospitalization. Advanced therapy use was defined as a prescription for adalimumab, certolizumab pegol, golimumab, infliximab, vedolizumab, ustekinumab, tofacitinib, azathioprine, mercaptopurine, or methotrexate. Information on the duration and dosage of outcome drugs was also not available.
This created a potential for bias in that many patients may experience one or more of the measured outcomes (steroid use, hospitalization, or advanced therapy use) within the first year of their diagnosis as standard of care. Indexing those patients to a time other than the time of their original diagnosis, for example, to a time when they received a prescription for a different medication, would mitigate that bias.
Comparators that would not only mitigate the index bias, but also address other potential biases, were specifically chosen. […] HAV is also frequently prescribed for travelers, and there happens to be a high degree of geographic overlap among hepatitis A and malaria-endemic regions.
We performed 1:1 greedy nearest neighbor propensity score matching (caliper of 0.1 standard deviations) to balance cohorts on age, sex, race, comorbid conditions (including cardiovascular, pulmonary, rheumatologic, and renal co-morbidities included in the Charlson Comorbidity Index), presence of prior hospitalization, and use of steroids and IBD advanced therapy (as defined above) to control for baseline disease severity and prior presence of any of the measured outcomes (Table 1, Supplemental Table 1). Differences between groups were calculated using either an independent t-test or a chi-square test as appropriate. Estimates of odds ratios (OR), and 95% confidence intervals (CI) were used to describe the outcome risks. P-values of α<0.05 were considered statistically significant.

murine colitis = settings: mouse, in vivo, cited from earlier work
[4] = test system: patients with ulcerative colitis; settings: small human trial; cited from earlier work
[5] = test system: ulcerative colitis patient
UC patients = settings: 60 UC patients; cited from earlier work
[6] = Crohn's disease, n = 381 per cohort, A/P vs HCQ
[7] = all-cause IBD, n = 947 per cohort, A/P vs HCQ
[8] = ulcerative colitis, n = 405 per cohort, A/P vs HCQ
[9] = Crohn's disease, n = 313 per cohort, A/P vs MES
[10] = all-cause IBD, n = 624 per cohort, A/P vs MES
[11] = ulcerative colitis, n = 260 per cohort, A/P vs MES

O=C1C(O)=C([C@H]2CC[C@H](c3ccc(Cl)cc3)CC2)C(=O)c2ccccc21 [Atovaquone, trans-2-[4-(4-chlorophenyl)cyclohexyl]-3-hydroxy-1,4-naphthalenedione]
solubility in water [1]: practically insoluble
colitis (DSS-induced murine / experimental) ([2]; by reducing mucosal neutrophil accumulation): attenuates; also recorded: promoted the resolution
S100A9 and CD11b expression on neutrophil surfaces ([2]; mouse, in vivo): reduction
human neutrophil chemotaxis (human neutrophils): directly suppressed

CCN(CCO)CCCC(C)Nc1ccnc2cc(Cl)ccc12 (stereo not drawn) [HCQ, hydroxychloroquine]
all-cause hospitalization, number of patients [3, 6]: 43
steroid use, number of patients [3, 6]: 194
advanced therapy use, number of patients [3, 7]: 277
all-cause hospitalization, number of patients [3, 7]: 118
steroid use, number of patients [3, 7]: 485
advanced therapy use, number of patients [3, 8]: 99
all-cause hospitalization, number of patients [3, 8]: 60
steroid use, number of patients [3, 8]: 211
murine colitis and associated cancer (murine colitis): showed efficacy; also recorded: attenuate murine colitis
murine colitis and associated cancer (murine colitis; listed as Hydroxychloroquine): decrease the incidence
efficacy vs placebo in ulcerative colitis [4]: failed to demonstrate superiority over placebo

Nc1ccc(O)c(C(=O)O)c1 [MES, mesalamine]
all-cause hospitalization, number of patients [3, 9]: 53
steroid use, number of patients [3, 9]: 162
advanced therapy use, number of patients [3, 10]: 182
all-cause hospitalization, number of patients [3, 10]: 92
steroid use, number of patients [3, 10]: 307
advanced therapy use, number of patients [3, 11]: 31
all-cause hospitalization, number of patients [3, 11]: 47
steroid use, number of patients [3, 11]: 111
therapeutic effect on colitis ([5]; 4.8 grams generic tablets daily, day 1): no therapeutic effect
adverse event ([5]; in vivo): moderate costochondral chest pain

[H]/N=C(\N/C(=N/[H])Nc1ccc(Cl)cc1)NC(C)C [Proguanil hydrochloride, 1-(4-chlorophenyl)-5-isopropyl-biguanide]
solubility in water [1]: sparingly soluble

CCN(CC)CCCC(C)Nc1ccnc2cc(Cl)ccc12 (stereo not drawn) [chloroquine]
adverse events compared to sulfasalazine (UC patients): fewer
remission and response rates compared to sulfasalazine (UC patients): similar

C[C@]12C=CC(=O)C=C1CC[C@@H]1[C@@H]2C(=O)C[C@@]2(C)[C@H]1CC[C@]2(O)C(=O)CO [prednisone]
colitis symptoms ([5]; 40 mg daily, after 7 days): no improvement

CO[C@H]1/C=C/O[C@@]2(C)Oc3c(C)c(O)c4c(O)c(c5c(nc6cc(C)ccn65)c4c3C2=O)NC(=O)/C(C)=C\C=C\[C@H](C)[C@H](O)[C@@H](C)[C@@H](O)[C@@H](C)[C@H](OC(C)=O)[C@@H]1C [rifaximin]
colitis symptoms ([5]; 10-day course, 275 mg TID): symptoms persisted
